Data reported in patent US10941157B2, “Pesticidal compositions and uses thereof” (Gilead Apollo, LLC, priority 2015, dated 2021).
Values after ≈ are worked out from the molar mass of the structure shown.

How the values were obtained:
Botrtyis cinerea (Bc) = assay: In vitro pathogen growth inhibition assay, Bc; format: cell-based; settings: 48 h, ≥90% growth inhibition; 48 hours; vs 2% DMSO control; read-out: Compound Concentration (ppm) sufficient for ≥90% inhibition of Bc
Method in brief: (§1)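 Value reported is the compound concentration reaching ≥90% growth inhibition, from OD readings at 24 and 48 h after blank subtraction, confirmed visually. Inoculum was spores diluted in 17% V8 medium, except Rs, using 1.5 mm mycelial plugs in ¼ PDB; actual compound concentration corrected via OD600.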

[1] = system: Collectotrichum graminicola (Cg); assay: In vitro pathogen growth inhibition assay, Cg; format: cell-based; settings: 48 h, ≥90% growth inhibition; 48 hours; vs 2% DMSO control; read-out: Compound Concentration (ppm) sufficient for ≥90% inhibition of Cg
Method in brief: as §1

Diplodia maydis (Dm) = assay: In vitro pathogen growth inhibition assay, Dm; format: cell-based; settings: Stenocarpella maydis, 48 h, ≥90% growth inhibition; 48 hours; vs 2% DMSO control; read-out: Compound Concentration (ppm) sufficient for ≥90% inhibition of Dm
Method in brief: as §1

[2] = system: Fusarium moniliforme (Fm); assay: In vitro pathogen growth inhibition assay, Fm; format: cell-based; settings: Fusarium verticillioides; ≥90% growth inhibition; 48 hours; vs 2% DMSO control; read-out: Compound Concentration (ppm) sufficient for ≥90% inhibition of Fm
Method in brief: as §1

[3] = system: Fusarium virguliforme (Fv); assay: In vitro pathogen growth inhibition assay, Fv; format: cell-based; settings: ≥90% growth inhibition, 48 hours, vs 2% DMSO control, read-out: Compound Concentration (ppm) sufficient for ≥90% inhibition of Fv
Method in brief: as §1

[4] = system: Phytophthora capsici (Pc); assay: In vitro pathogen growth inhibition assay, Pc; format: cell-based; settings: 48 h, ≥90% growth inhibition, 48 hours, vs 2% DMSO control, read-out: Compound Concentration (ppm) sufficient for ≥90% inhibition of Pc
Method in brief: as §1

Rhizoctonia solani (Rs) = assay: In vitro pathogen growth inhibition assay, Rs (mycelial plugs); format: cell-based; settings: Rhizoctonia solani, 48 h, ≥90% growth inhibition; mycelial plugs; 48 hours; vs 2% DMSO control; read-out: Compound Concentration (ppm) sufficient for ≥90% inhibition of Rs
Method in brief: as §1

Septoria tritici (St) = assay: In vitro pathogen growth inhibition assay, St; format: cell-based; settings: Zymoseptoria tritici, 48 h, ≥90% growth inhibition; 48 hours; vs 2% DMSO control; read-out: Compound Concentration (ppm) sufficient for ≥90% inhibition of St
Method in brief: as §1

[5] = system: Blumeria graminis f. sp. hordei; assay: Foliar protection test for barley powdery mildew control; format: in vivo; settings: foliar spray on Hordeum vulgare cv. Perry, inoculated 24 hours after treatment, evaluated 7 days later
Method in brief: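 Protective foliar test: compound atomized onto both leaf surfaces of 6-day-old Hordeum vulgare cv. Perry, followed after 24 h by spore-cloud inoculation from colonized untreated plants. Disease rated on leaves 7 days on, plants held at 20 to 22° C and 70% RH.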

Sphaerotheca fuliginea = assay: Foliar protection for cucumber powdery mildew control; format: in vivo; settings: foliar spray on Cucumis sativus cv. Straight Eight, inoculated 24 hours after treatment, evaluated 7 days later
Method in brief: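 Protective foliar spray on 10-day-old Straight Eight cucumbers, with S. fuliginea spores dusted from infected stock plants 24 h after treatment. Disease developed at 23–27 °C, 60% RH and a 16 h photoperiod. Leaves were rated for mildew growth after 7 days; test rates 10 ppm or below.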

[6] = system: Mycosphaerella graminicola (synthetic Septoria tritici); assay: Foliar protection test for wheat septoria leaf blotch control; format: in vivo; settings: foliar spray on Triticum aestivum cv. WinterHawk, inoculated 1 hour after treatment, evaluated 16 days later
Fusarium graminearum = format: in vivo; settings: spray on flowering Triticum aestivum cv. Samson, inoculated 24 hours after treatment, evaluated 14 days later
Puccinia triticina = assay: Foliar protection test for wheat leaf rust control; format: in vivo; settings: foliar application to wheat (Triticum aestivum cv. Winterhawk), evaluated 10 days later
Phakopsora pachyrhizi = assay: Foliar protection test for Asian soybean rust control; format: in vivo; settings: foliar application to soybean (Glycine max AG4832), percent disease area evaluated 14 days later

SMILES	IC90 (Botrtyis cinerea (Bc)) [µg/mL]	IC90 [1] [µg/mL]	IC90 (Diplodia maydis (Dm)) [µg/mL]	IC90 [2] [µg/mL]	IC90 [3] [µg/mL]	IC90 [4] [µg/mL]	IC90 (Rhizoctonia solani (Rs)) [µg/mL]	IC90 (Septoria tritici (St)) [µg/mL]	Barley Powdery Mildew Control at a compound concentration of 10 ppm or lower [5]	Cucumber Powdery Mildew Control at a compound concentration of 10 ppm or lower (Sphaerotheca fuliginea)	Septoria Leaf Blotch Control at a compound concentration of 25 ppm or lower [6]	Wheat Fusarium Head Blight Control at a compound concentration of 25 ppm or lower (Fusarium graminearum)	Wheat Leaf Rust Control at a compound concentration of 10 ppm or lower (Puccinia triticina)	Asian Soybean Rust Control at a compound concentration of 25 ppm or lower (Phakopsora pachyrhizi)
COc1ccc(F)cc1[C@H](Cn1c(=O)n(C(C)(C)C(=O)NC(C)C)c(=O)c2c(C)c(-n3nccn3)sc21)OCCS(C)(=O)=O [Compound I-287, (R)-2-(1-(2-(5-fluoro-2-methoxyphenyl)-2-(2-(methylsulfonyl)ethoxy)ethyl)-5-methyl-2,4-dioxo-6-(2H-1,2,3-triazol-2-yl)-1,4-dihydrothieno[2,3-d]pyrimidin-3 (2H)-yl)-N-isopropyl-2-methylpropanamide]	2 (≈ 3.07 µM)	0.4 (≈ 0.615 µM)	0.4 (≈ 0.615 µM)	0.4 (≈ 0.615 µM)	2 (≈ 3.07 µM)	10 (≈ 15.4 µM)	0.08 (≈ 0.123 µM)	≥ 50	AA (≥85% control of barley powdery mildew)	AA (≥85% control of cucumber powdery mildew)	AA (≥85% control of wheat septoria leaf blotch)	C (from 25 to 49% control of wheat fusarium head blight)	AA (≥85% control of wheat leaf rust)	AA (≥85% control of Asian soybean rust)
CCNC(=O)[C@@H](C)n1c(=O)c2c(C)c(-n3nccn3)sc2n(C[C@H](OCCC#N)c2cc(F)ccc2OC)c1=O [Compound I-289, (R)-2-(1-((R)-2-(2-cyanoethoxy)-2-(5-fluoro-2-methoxyphenyl)ethyl)-5-methyl-2,4-dioxo-6-(2H-1,2,3-triazol-2-yl)-1,4-dihydrothieno[2,3-d]pyrimidin-3 (2H)-yl)-N-ethylpropanamide]	2 (≈ 3.51 µM)	0.08 (≈ 0.14 µM)	0.4 (≈ 0.702 µM)	0.08 (≈ 0.14 µM)	0.4 (≈ 0.702 µM)	≥ 10	0.08 (≈ 0.14 µM)	> 50	AA (≥85% control of barley powdery mildew)	AA (≥85% control of cucumber powdery mildew)	AA (≥85% control of wheat septoria leaf blotch)	C (from 25 to 49% control of wheat fusarium head blight)	AA (≥85% control of wheat leaf rust)	AA (≥85% control of Asian soybean rust)
CCNC(=O)C(C)(C)n1c(=O)c2c(C)c(-n3nccn3)sc2n(C[C@H](O)c2cc(F)ccc2OC)c1=O [Compound I-292, (R)—N-ethyl-2-(1-(2-(5-fluoro-2-methoxyphenyl)-2-hydroxyethyl)-5-methyl-2,4-dioxo-6-(2H-1,2,3-triazol-2-yl)-1,4-dihydrothieno[2,3-d]pyrimidin-3 (2H)-yl)-2-methylpropanamide]	2 (≈ 3.77 µM)	2 (≈ 3.77 µM)	2 (≈ 3.77 µM)	0.08 (≈ 0.151 µM)	0.4 (≈ 0.754 µM)	> 50	0.4 (≈ 0.754 µM)	> 50	AA (≥85% control of barley powdery mildew)	AA (≥85% control of cucumber powdery mildew)	B (from 50 to 69% control of wheat septoria leaf blotch)	C (from 25 to 49% control of wheat fusarium head blight)	AA (≥85% control of wheat leaf rust)	B (from 50 to 69% control of Asian soybean rust)
COc1ccc(F)cc1[C@H](Cn1c(=O)n(C(C)(C)C(=O)NC2CCC2)c(=O)c2c(C)c(-n3cccn3)sc21)OCCC#N [Compound I-307, (R)-2-(1-(2-(2-cyanoethoxy)-2-(5-fluoro-2-methoxyphenyl)ethyl)-5-methyl-2,4-dioxo-6-(1H-pyrazol-1-yl)-1,4-dihydrothieno[2,3-d]pyrimidin-3 (2H)-yl)-N-cyclobutyl-2-methylpropanamide]	≥ 0.4	2 (≈ 3.29 µM)	2 (≈ 3.29 µM)	0.08 (≈ 0.131 µM)	0.4 (≈ 0.657 µM)	> 50	0.08 (≈ 0.131 µM)	> 50	AA (≥85% control of barley powdery mildew)	AA (≥85% control of cucumber powdery mildew)	B (from 50 to 69% control of wheat septoria leaf blotch)	C (from 25 to 49% control of wheat fusarium head blight)	AA (≥85% control of wheat leaf rust)	C (from 25 to 49% control of Asian soybean rust)
COc1ccc(F)cc1[C@H](Cn1c(=O)n([C@H](C)C(=O)NC2CCC2)c(=O)c2c(C)c(-n3cccn3)sc21)OCCC#N [Compound I-308, (R)-2-(1-((R)-2-(2-cyanoethoxy)-2-(5-fluoro-2-methoxyphenyl)ethyl)-5-methyl-2,4-dioxo-6-(1H-pyrazol-1-yl)-1,4-dihydrothieno[2,3-d]pyrimidin-3 (2H)-yl)-N-cyclobutylpropanamide]	0.4 (≈ 0.673 µM)	2 (≈ 3.36 µM)	2 (≈ 3.36 µM)	0.4 (≈ 0.673 µM)	2 (≈ 3.36 µM)	50 (≈ 84.1 µM)	0.08 (≈ 0.135 µM)	> 50	AA (≥85% control of barley powdery mildew)	AA (≥85% control of cucumber powdery mildew)	AA (≥85% control of wheat septoria leaf blotch)	C (from 25 to 49% control of wheat fusarium head blight)	AA (≥85% control of wheat leaf rust)	C (from 25 to 49% control of Asian soybean rust)
COc1ccccc1[C@@H](O)Cn1c(=O)n(C(C)(C)C(=O)NC(C)C)c(=O)c2c(C)c(-n3nccn3)sc21 [Compound I-316, (R)-2-(1-(2-hydroxy-2-(2-methoxyphenyl)ethyl)-5-methyl-2,4-dioxo-6-(2H-1,2,3-triazol-2-yl)-1,4-dihydrothieno[2,3-d]pyrimidin-3 (2H)-yl)-N-isopropyl-2-methylpropanamide]	0.4 (≈ 0.76 µM)	2 (≈ 3.8 µM)	2 (≈ 3.8 µM)	0.08 (≈ 0.152 µM)	0.08 (≈ 0.152 µM)	≥ 10	0.08 (≈ 0.152 µM)	> 50	AA (≥85% control of barley powdery mildew)	AA (≥85% control of cucumber powdery mildew)	A (from 70% to 84% control of wheat septoria leaf blotch)	C (from 25 to 49% control of wheat fusarium head blight)	AA (≥85% control of wheat leaf rust)	A (from 70% to 84% control of Asian soybean rust)
